Patent US12629341B2 (priority 2019, dated 2026)

Legend:
PrP^Sc [1] = molecular target: PrP^Sc (Mesocricetus auratus, UniProt P04273); design: species or system Syrian hamster; conditions: Hyper-hamster PrPSc pellet
PrP^Sc [2] = molecular target: PrP^Sc (Mus musculus, UniProt P04925); conditions: FVB-RML mouse PrPSc pellet
PrP^Sc (Mus musculus, UniProt P04925), sequence (P04925 23-230 limits assumed): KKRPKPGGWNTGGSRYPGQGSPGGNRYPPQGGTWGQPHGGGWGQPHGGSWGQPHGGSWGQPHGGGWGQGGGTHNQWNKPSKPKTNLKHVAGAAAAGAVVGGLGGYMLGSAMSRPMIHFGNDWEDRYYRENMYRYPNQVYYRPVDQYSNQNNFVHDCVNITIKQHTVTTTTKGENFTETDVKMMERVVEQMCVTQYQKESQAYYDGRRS

PrP^Sc (Mesocricetus auratus, UniProt P04273), sequence (P04273 23-231 limits assumed): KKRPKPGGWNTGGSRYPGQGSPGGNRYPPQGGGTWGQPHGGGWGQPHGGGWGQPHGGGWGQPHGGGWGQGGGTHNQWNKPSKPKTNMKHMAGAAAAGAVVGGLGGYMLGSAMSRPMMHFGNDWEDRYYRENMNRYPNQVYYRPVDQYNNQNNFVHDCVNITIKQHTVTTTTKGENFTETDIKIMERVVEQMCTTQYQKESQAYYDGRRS

`CCCCCCCCCCCC(=O)N(C)CC(=O)[O-].[Na+]` [Sarkosyl] was tested, and the “calculated amount of lipid: DG” value (PrP^Sc [1]) was 0, the “calculated amount of lipid: FA (free fatty acid)” value (PrP^Sc [1]) was 0 and the “calculated amount of lipid: FC (free cholesterol)” value (PrP^Sc [1]) was 24.35. The “calculated amount of lipid: PC (phosphatidylcholine)” value (PrP^Sc [1]) was 21.46, the “calculated amount of lipid: PE (phosphatidylethanolamine)” value (PrP^Sc [1]) was 8.57 and the “calculated amount of lipid: PI (phosphatidylinositol)” value (PrP^Sc [1]) was 0. The “calculated amount of lipid: PS (phosphatidylserine)” value (PrP^Sc [1]) was 2.23, the “calculated amount of lipid: SM (sphingomyelin)” value (PrP^Sc [1]) was 3.12 and the “calculated amount of lipid: CE (cholesterol esters)” value (PrP^Sc [2]) was 3.54. The “calculated amount of lipid: DG” value (PrP^Sc [2]) was 0, the “calculated amount of lipid: FA (free fatty acid)” value (PrP^Sc [2]) was 0 and the “calculated amount of lipid: FC (free cholesterol)” value (PrP^Sc [2]) was 31.17. The “calculated amount of lipid: PC (phosphatidylcholine)” value (PrP^Sc [2]) was 16.80, the “calculated amount of lipid: PE (phosphatidylethanolamine)” value (PrP^Sc [2]) was 21.83 and the “calculated amount of lipid: PI (phosphatidylinositol)” value (PrP^Sc [2]) was 1.92. The “calculated amount of lipid: PS (phosphatidylserine)” value (PrP^Sc [2]) was 8.05, the “calculated amount of lipid: SM (sphingomyelin)” value (PrP^Sc [2]) was 1.58 and the “calculated amount of lipid: TG (triglycerides)” value (PrP^Sc [2]) was 4.29.
